Measurements: ChEMBL document CHEMBL3352620, “Development of potent antagonists for formyl peptide receptor 1 based on Boc-Phe-D-Leu-Phe-D-Leu-Phe-OH” (Bioorg Med Chem, 2014)
Active and inactive are the calls of the source. The rule behind the calls is not given here.

How the values were obtained:
fMet-Leu-Phe receptor [1] = molecular target: T1, fMet-Leu-Phe receptor (Homo sapiens, UniProt P21462); experiment: Antagonist activity at formyl peptide receptor in human HL60 cells assessed as inhibition of intracellular calcium mobilization incubated for 5 mins prior to fMLP challenge by Fura-2 method; type: functional, cell-based, HL-60
T1 sequence (P21462 whole entry): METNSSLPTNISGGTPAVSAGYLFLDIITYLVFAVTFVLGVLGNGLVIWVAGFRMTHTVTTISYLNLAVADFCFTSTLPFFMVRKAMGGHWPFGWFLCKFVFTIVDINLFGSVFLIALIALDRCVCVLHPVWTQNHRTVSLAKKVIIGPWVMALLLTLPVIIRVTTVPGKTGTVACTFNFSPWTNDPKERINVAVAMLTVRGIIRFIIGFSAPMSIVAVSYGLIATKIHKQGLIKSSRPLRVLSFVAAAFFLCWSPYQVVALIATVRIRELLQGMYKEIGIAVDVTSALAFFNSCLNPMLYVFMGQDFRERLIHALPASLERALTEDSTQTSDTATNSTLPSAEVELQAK

fMet-Leu-Phe receptor [2] = molecular target: T1, fMet-Leu-Phe receptor; experiment: Antagonist activity at formyl peptide receptor in human HL60 cells assessed as inhibition of fMLP-induced calcium mobilization incubated for 5 mins prior to fMLP challenge by Fura-2 method
[3] = molecular target: T2, fMet-Leu-Phe receptor (Homo sapiens) (UniProt P21462); experiment: Antagonist activity at formyl peptide receptor in human HL60 cells assessed as inhibition of MMK1-induced calcium mobilization at 1 to 10 uM incubated for 5 mins prior to MMk1 challenge by Fura-2 method; type: functional, cell-based; conditions: HL-60
T2 sequence (whole entry): T1 sequence (P21462 whole entry)

[4] = molecular target: T2, fMet-Leu-Phe receptor (Homo sapiens); experiment: Agonist activity at formyl peptide receptor in human HL60 cells at 10 uM by Fura-2 method; type: cell-based; conditions: HL-60

Compound	Kd (fMet-Leu-Phe receptor [1]) [nM]	further results
CC(C)C[C@@H](NC(=O)[C@H](Cc1ccccc1)NC(=O)OC(C)(C)C)C(=O)N[C@H](C(=O)N[C@H](CC(C)C)C(=O)N[C@@H](Cc1ccccc1)C(=O)O)[C@@H](C)OC(C)(C)C	830	
CC(C)C[C@@H](NC(=O)[C@H](Cc1ccccc1)NC(=O)[C@@H](CC(C)C)NC(=O)[C@H](CCCCNC(=O)c1ccccc1)NC(=O)OC(C)(C)C)C(=O)N[C@@H](Cc1ccccc1)C(=O)O	140	
CC(C)C[C@H](NC(=O)OC(C)(C)C)C(=O)N[C@H](CC(C)C)C(=O)N[C@@H](Cc1ccccc1)C(=O)N[C@H](CC(C)C)C(=O)N[C@@H](Cc1ccccc1)C(=O)O	200	
CC(C)C[C@@H](NC(=O)[C@H](CC1=CCCCC1)NC(=O)[C@@H](CC(C)C)NC(=O)[C@H](Cc1ccc(C(=O)c2ccccc2)cc1)NC(=O)OC(C)(C)C)C(=O)N[C@@H](Cc1ccccc1)C(=O)O	2.1	IC50 (fMet-Leu-Phe receptor [2]): 140 nM; inhibition [3]: inactive
CC(C)C[C@@H](NC(=O)[C@H](Cc1ccccc1)NC(=O)[C@@H](CC(C)C)NC(=O)[C@H](CCCCN)NC(=O)OC(C)(C)C)C(=O)N[C@@H](Cc1ccccc1)C(=O)O	730	
CC(C)C[C@@H](NC(=O)[C@H](Cc1ccccc1)NC(=O)[C@H](C)NC(=O)[C@H](Cc1ccccc1)NC(=O)OC(C)(C)C)C(=O)N[C@@H](Cc1ccccc1)C(=O)O	260	Activity [4]: inactive
CC(C)C[C@@H](NC(=O)[C@H](Cc1ccccc1)NC(=O)OC(C)(C)C)C(=O)N[C@@H](Cc1ccccc1)C(=O)N[C@@H](C)C(=O)N[C@@H](Cc1ccccc1)C(=O)O	420	Activity [4]: inactive
CC(C)C[C@@H](NC(=O)[C@H](Cc1ccccc1)NC(=O)OC(C)(C)C)C(=O)N[C@H](C(=O)N[C@H](CC(C)C)C(=O)N[C@@H](Cc1ccccc1)C(=O)O)C(C)C	> 1000	
CC(C)C[C@@H](NC(=O)[C@H](CC1=CCCCC1)NC(=O)[C@@H](CC(C)C)NC(=O)[C@H](Cc1ccc(C(=O)c2ccccc2)cc1)NC(=O)OC(C)(C)C)C(=O)N[C@@H](CC1CCCCC1)C(=O)O	6.9	
CC(C)C[C@@H](NC(=O)[C@H](Cc1ccccc1)NC(=O)[C@@H](CC(C)C)NC(=O)[C@H](Cc1ccc(C(=O)c2ccccc2)cc1)NC(=O)OC(C)(C)C)C(=O)N[C@@H](Cc1ccccc1)C(=O)O	16	IC50 (fMet-Leu-Phe receptor [2]): 420 nM; inhibition [3]: inactive
CSCC[C@H](NC(=O)[C@@H](CC(C)C)NC(=O)[C@H](Cc1ccccc1)NC(=O)OC(C)(C)C)C(=O)N[C@H](CC(C)C)C(=O)N[C@@H](Cc1ccccc1)C(=O)O	130	
CC(C)C[C@@H](NC(=O)[C@H](Cc1ccccc1)NC(=O)[C@@H](CC(C)C)NC(=O)[C@H](CC1CCCCC1)NC(=O)OC(C)(C)C)C(=O)N[C@@H](Cc1ccccc1)C(=O)O	66	
CC(C)C[C@H](NC(=O)[C@@H](CC(C)C)NC(=O)[C@H](Cc1ccccc1)NC(=O)[C@@H](CC(C)C)NC(=O)[C@H](Cc1ccccc1)NC(=O)OC(C)(C)C)C(=O)O	130	
CC(C)C[C@@H](NC(=O)[C@H](Cc1ccccc1)NC(=O)[C@@H](CC(C)C)NC(=O)[C@H](Cc1ccccc1)NC(=O)OC(C)(C)C)C(=O)N[C@@H](CC1CCCCC1)C(=O)O	77	
CC(C)C[C@@H](NC(=O)[C@H](Cc1ccccc1)NC(=O)[C@@H](CC(C)C)NC(=O)[C@H](Cc1ccc(Cl)cc1)NC(=O)OC(C)(C)C)C(=O)N[C@@H](Cc1ccccc1)C(=O)O	75	
CC(C)C[C@@H](NC(=O)[C@H](Cc1ccccc1)NC(=O)[C@@H](CC(C)C)NC(=O)[C@@H](NC(=O)OC(C)(C)C)[C@@H](C)OC(C)(C)C)C(=O)N[C@@H](Cc1ccccc1)C(=O)O	140	
CC(C)C[C@@H](NC(=O)[C@H](CCCCNC(=O)OC(C)(C)C)NC(=O)[C@@H](CC(C)C)NC(=O)[C@H](Cc1ccccc1)NC(=O)OC(C)(C)C)C(=O)N[C@@H](Cc1ccccc1)C(=O)O	> 1000	
CC(C)C[C@@H](NC(=O)[C@H](Cc1ccccc1)NC(=O)[C@@H](CC(C)C)NC(=O)[C@H](Cc1ccccc1)NC(=O)OC(C)(C)C)C(=O)N[C@@H](Cc1ccc(OC(C)(C)C)cc1)C(=O)O	68	
CC(C)C[C@H](NC(=O)[C@@H](CC(C)C)NC(=O)[C@H](Cc1ccccc1)NC(=O)OC(C)(C)C)C(=O)N[C@H](CC(C)C)C(=O)N[C@@H](Cc1ccccc1)C(=O)O	200	
